Data on 26 compounds can be found in patent US8575183B2, “Heterocyclic compounds and their uses” (priority 2010, dated 2013).

For one assay, the target named is T1, PI3k δ (Homo sapiens, UniProt O00329).
T1 construct: Full length p110 subunits of PI3k α, β and δ; polyHis (N); made in house; host or cells: Sf9 insect cells (baculovirus)
T1 sequence (O00329 whole entry): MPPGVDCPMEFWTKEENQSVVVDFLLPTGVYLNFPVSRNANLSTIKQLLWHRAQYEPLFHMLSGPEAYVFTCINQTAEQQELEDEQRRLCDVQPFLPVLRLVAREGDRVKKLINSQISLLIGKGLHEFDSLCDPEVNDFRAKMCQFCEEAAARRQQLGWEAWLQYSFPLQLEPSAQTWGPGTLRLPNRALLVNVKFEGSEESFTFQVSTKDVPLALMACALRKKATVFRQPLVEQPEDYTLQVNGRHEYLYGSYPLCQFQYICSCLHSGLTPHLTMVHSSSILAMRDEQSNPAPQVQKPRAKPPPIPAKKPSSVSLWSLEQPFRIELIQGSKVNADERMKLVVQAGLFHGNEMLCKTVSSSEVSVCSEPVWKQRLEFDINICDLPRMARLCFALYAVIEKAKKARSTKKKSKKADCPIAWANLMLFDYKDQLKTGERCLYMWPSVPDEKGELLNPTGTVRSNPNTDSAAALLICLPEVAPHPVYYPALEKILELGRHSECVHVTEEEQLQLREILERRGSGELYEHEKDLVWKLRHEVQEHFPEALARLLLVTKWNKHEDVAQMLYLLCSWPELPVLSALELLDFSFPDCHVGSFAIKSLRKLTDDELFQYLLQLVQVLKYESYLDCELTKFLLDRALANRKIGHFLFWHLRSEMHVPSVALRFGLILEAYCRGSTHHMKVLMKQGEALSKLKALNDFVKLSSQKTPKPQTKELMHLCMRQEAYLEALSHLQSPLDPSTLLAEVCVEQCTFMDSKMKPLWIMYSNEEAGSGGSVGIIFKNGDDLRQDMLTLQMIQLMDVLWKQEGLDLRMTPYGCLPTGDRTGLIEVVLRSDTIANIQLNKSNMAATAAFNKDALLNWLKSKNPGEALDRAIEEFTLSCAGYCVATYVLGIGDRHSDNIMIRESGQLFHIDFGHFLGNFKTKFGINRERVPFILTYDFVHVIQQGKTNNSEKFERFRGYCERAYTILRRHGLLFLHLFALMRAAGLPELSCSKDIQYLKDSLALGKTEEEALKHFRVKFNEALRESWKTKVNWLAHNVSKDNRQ
T1 sequence (P27986 whole entry partner): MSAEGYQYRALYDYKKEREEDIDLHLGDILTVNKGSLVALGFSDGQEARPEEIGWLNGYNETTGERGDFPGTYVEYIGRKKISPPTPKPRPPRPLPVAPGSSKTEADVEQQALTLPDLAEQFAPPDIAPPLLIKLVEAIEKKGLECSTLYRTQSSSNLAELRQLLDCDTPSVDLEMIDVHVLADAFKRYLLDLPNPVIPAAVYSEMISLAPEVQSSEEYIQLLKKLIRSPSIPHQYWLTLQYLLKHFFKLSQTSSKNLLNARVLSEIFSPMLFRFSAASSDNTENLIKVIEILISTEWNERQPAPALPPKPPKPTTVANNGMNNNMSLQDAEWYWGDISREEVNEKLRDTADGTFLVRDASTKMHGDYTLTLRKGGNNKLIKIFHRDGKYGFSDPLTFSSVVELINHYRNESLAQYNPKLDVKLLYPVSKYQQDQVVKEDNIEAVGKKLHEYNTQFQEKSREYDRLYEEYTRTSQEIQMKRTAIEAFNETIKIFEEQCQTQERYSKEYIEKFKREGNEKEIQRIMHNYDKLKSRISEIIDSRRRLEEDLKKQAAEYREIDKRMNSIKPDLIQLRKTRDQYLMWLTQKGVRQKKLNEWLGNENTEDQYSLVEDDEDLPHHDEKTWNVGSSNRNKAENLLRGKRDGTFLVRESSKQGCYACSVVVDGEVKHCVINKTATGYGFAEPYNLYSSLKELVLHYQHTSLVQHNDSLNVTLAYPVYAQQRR
The assay is described as follows: biochemical. Format: biochemical.
Details: not given
As for the experimental part:
Full length p110 subunits of PI3k α, β and δ, N-terminally labeled with polyHis tag, were coexpressed with p85 with Baculo virus expression vectors in sf9 insect cells. P110/p85 heterodimers were purified by sequential Ni-NTA, Q-HP, Superdex-100 chromatography. Purified α, β and δ isozymes were stored at −20° C. in 20 mM Tris, pH 8, 0.2M NaCl, 50% glycerol, 5 mM DTT, 2 mM Na cholate. […] The γ isozyme was purified by sequential Ni-NTA, Superdex-200, Q-HP chromatography. The γ isozyme was stored frozen at −80° C. in NaH2PO4, pH 8, 0.2M NaCl, 1% ethylene glycol, 2 mM β-mercaptoethanol.
Phospatidyl inositol phosphoacceptor, Ptdlns(4,5)P2 P4508, was from Echelon Biosciences. […] Test compounds were dissolved in dimethyl sulfoxide and diluted with three-fold serial dilutions. The compound in DMSO (1 μL) was added per test well, and the inhibition relative to reactions containing no compound, with and without enzyme was determined. After assay incubation at rt, the reaction was stopped and residual ATP determined by addition of an equal volume of a commercial ATP bioluminescence kit (Perkin Elmer EasyLite) according to the manufacturer's instructions, and detected using a AnalystGT luminometer.
Turning to `CC(Nc1ncnc(N)c1C#N)c1nc2ncccc2n1-c1ccccn1` (centres unmarked), the inhibition constant Ki (commonly the equilibrium dissociation constant of an inhibitor or competing ligand from its target) was found to be 2900 nM.

For `CC(Nc1ncnc(N)c1C#N)c1nc2cccc(S(C)(=O)=O)c2n1C1CC1` (centres unmarked), the affinity, expressed as Ki, was 3.76 nM.

As for `C[C@@H](Nc1ncnc(N)c1C#N)c1nc2ccc(F)cc2n1-c1cncc(-c2ccccn2)c1` [4-amino-6-(((1R)-1-(1-(2,3′-bipyridin-5′-yl)-6-fluoro-1H-benzimidazol-2-yl)ethyl)amino)-5-pyrimidinecarbonitrile], the affinity, expressed as Ki, was 1190 nM.

The same assay, now with this note: read-out: PI3k δ Ki.
Consider `CNC(=O)c1cccc2nc([C@H](C)Nc3ncnc4[nH]cnc34)n(C3CC3)c12` [1-cyclopropyl-N-methyl-2-((1S)-1-(9H-purin-6-ylamino)ethyl)-1H-benzimidazole-7-carboxamide], for which the Ki came out at 14.6 nM.

As to `C[C@@H](Nc1ncnc(N)c1C#N)c1nc2cccc(C#N)c2n1-c1cncc(F)c1` [2-((1R)-1-((6-amino-5-cyano-4-pyrimidinyl)amino)ethyl)-1-(5-fluoro-3-pyridinyl)-1H-benzimidazole-7-carbonitrile], the Ki worked out at 325 nM.

For the compound `CNC(=O)c1cccc2nc([C@@H](C)Nc3ncnc(N)c3C#N)n(-c3cncc(F)c3)c12` [2-((1R)-1-((6-amino-5-cyano-4-pyrimidinyl)amino)ethyl)-1-(5-fluoro-3-pyridinyl)-N-methyl-1H-benzimidazole-7-carboxamide], the Ki is 1370 nM.

With `CNC(=O)c1cccc2nc([C@H](C)Nc3ncnc(N)c3-c3ccc(S(C)(=O)=O)cc3)n(C3CC3)c12` [2-((1S)-1-((6-amino-5-(4-(methylsulfonyl)phenyl)-4-pyrimidinyl)amino)ethyl)-1-cyclopropyl-N-methyl-1H-benzimidazole-7-carboxamide], the inhibition constant (Ki) was 10.5 nM.

On to `CNC(=O)c1cccc2nc([C@H](C)Nc3ncnc(N)c3S(C)(=O)=O)n(C3CC3)c12` [2-((1S)-1-((6-amino-5-(methylsulfonyl)-4-pyrimidinyl)amino)ethyl)-1-cyclopropyl-N-methyl-1H-benzimidazole-7-carboxamide], for which the inhibition constant Ki was found to be 30 nM.

Take `CNC(=O)c1cccc2nc([C@H](C)Nc3ncnc(N)c3C(F)(F)F)n(C3CC3)c12` [2-((1S)-1-((6-amino-5-(trifluoromethyl)-4-pyrimidinyl)amino)ethyl)-1-cyclopropyl-N-methyl-1H-benzimidazole-7-carboxamide]: the inhibition constant Ki was 37 nM.

For `C[C@H](Nc1ncnc(N)c1C#N)c1nc2cccc(C#N)c2n1-c1cncc(F)c1` [2-((1S)-1-((6-amino-5-cyano-4-pyrimidinyl)amino)ethyl)-1-(5-fluoro-3-pyridinyl)-1H-benzimidazole-7-carbonitrile], the inhibition constant Ki came out at 171 nM.

Take `CNC(=O)c1cccc2nc([C@H](C)Nc3ncnc(N)c3C#N)n(-c3cncc(F)c3)c12` [2-((1S)-1-((6-amino-5-cyano-4-pyrimidinyl)amino)ethyl)-1-(5-fluoro-3-pyridinyl)-N-methyl-1H-benzimidazole-7-carboxamide]: the Ki turned out to be 10.2 nM.

On to `CNC(=O)c1cccc2nc([C@H](C)Nc3ncnc(N)c3C#N)n(C3CC3)c12` [2-((1S)-1-((6-amino-5-cyano-4-pyrimidinyl)amino)ethyl)-1-cyclopropyl-N-methyl-1H-benzimidazole-7-carboxamide], for which the inhibitory constant (Ki) amounted to 7.1 nM.

On to `CNC(=O)c1cccc2nc([C@H](C)Nc3ncnc(N)c3C#N)c(-c3cncc(F)c3)n12` [2-((1S)-1-((6-amino-5-cyano-4-pyrimidinyl)amino)ethyl)-3-(5-fluoro-3-pyridinyl)-N-methylimidazo[1,2-a]pyridine-5-carboxamide], for which the inhibition constant Ki came to 81.1 nM.

For `C[C@H](Nc1ncnc(N)c1C#N)c1nc2cccc(C(=O)NC3CC3)c2n1C1CC1` [2-((1S)-1-((6-amino-5-cyano-4-pyrimidinyl)amino)ethyl)-N,1-dicyclopropyl-1H-benzimidazole-7-carboxamide], the Ki was 17.5 nM.

On to `C[C@H](Nc1ncnc(N)c1C#N)c1nc2cccc(C(=O)NC3CCCC3)c2n1C1CC1` [2-((1S)-1-((6-amino-5-cyano-4-pyrimidinyl)amino)ethyl)-N-cyclopentyl-1-cyclopropyl-1H-benzimidazole-7-carboxamide], for which the Ki was found to be 18.4 nM.

With `C[C@H](Nc1ncnc(N)c1C#N)c1nc2cccc(C(=O)NC3CC3)n2c1-c1ccccc1` [2-((1S)-1-((6-amino-5-cyano-4-pyrimidinyl)amino)ethyl)-N-cyclopropyl-3-phenylimidazo[1,2-a]pyridine-5-carboxamide], the Ki was found to be 17.4 nM.

Consider `CNC(=O)c1cccc2nc([C@H](C)Nc3ncnc(N)c3C#N)c(-c3ccccc3)n12` [2-((1S)-1-((6-amino-5-cyano-4-pyrimidinyl)amino)ethyl)-N-methyl-3-phenylimidazo[1,2-a]pyridine-5-carboxamide], for which the Ki stood at 26.2 nM.

Regarding `C[C@H](Nc1ncnc(N)c1C#N)c1nc2cccc(C(=O)NC(C)(C)C)c2n1C1CC1` [2-((1S)-1-((6-amino-5-cyano-4-pyrimidinyl)amino)ethyl)-N-tert-butyl-1-cyclopropyl-1H-benzimidazole-7-carboxamide], the Ki was determined as 73.8 nM.

Regarding `CC[C@H](Nc1ncnc(N)c1C#N)c1nc2cccc(C(=O)NC)c2n1C1CC1` [2-((1S)-1-((6-amino-5-cyano-4-pyrimidinyl)amino)propyl)-1-cyclopropyl-N-methyl-1H-benzimidazole-7-carboxamide], the Ki came out at 39 nM.

In the case of `CNC(=O)c1cccc(-n2c([C@@H](C)Nc3ncnc(N)c3C#N)nc3ccc(F)cc32)c1` [3-(2-((1R)-1-((6-amino-5-cyano-4-pyrimidinyl)amino)ethyl)-6-fluoro-1H-benzimidazol-1-yl)-N-methylbenzamide], the Ki came out at 4670 nM.

For the compound `CNC(=O)c1cccc(-n2c([C@H](C)Nc3ncnc(N)c3C#N)nc3ccc(F)cc32)c1` [3-(2-((1S)-1-((6-amino-5-cyano-4-pyrimidinyl)amino)ethyl)-6-fluoro-1H-benzimidazol-1-yl)-N-methylbenzamide], the inhibition constant Ki was determined as 18.3 nM.

Regarding `CC(Nc1ncnc(N)c1C#N)c1sc2ccccc2c1-c1cc(F)cc(F)c1` (centres unmarked) [4-amino-6-((1-(3-(3,5-difluorophenyl)-1-benzothiophen-2-yl)ethyl)amino)-5-pyrimidinecarbonitrile], the Ki came to 3.33 nM.

Turning to `CC(Nc1ncnc(N)c1C#N)c1sc2ccccc2c1-c1ccccc1` (centres unmarked) [4-amino-6-((1-(3-phenyl-1-benzothiophen-2-yl)ethyl)amino)-5-pyrimidinecarbonitrile], the inhibitory constant (Ki) turned out to be 2.66 nM.

Turning to `C[C@@H](Nc1ncnc(N)c1C#N)c1nc2c(F)cc(F)cc2n1-c1cc(F)cc(F)c1` [4-amino-6-(((1R)-1-(1-(3,5-difluorophenyl)-4,6-difluoro-1H-benzimidazol-2-yl)ethyl)amino)-5-pyrimidinecarbonitrile], the Ki came to 251 nM.

On to `C[C@@H](Nc1ncnc(N)c1C#N)c1nc2c(F)cccc2n1-c1cc(F)cc(F)c1` [4-amino-6-(((1R)-1-(1-(3,5-difluorophenyl)-4-fluoro-1H-benzimidazol-2-yl)ethyl)amino)-5-pyrimidinecarbonitrile], for which the inhibitory constant (Ki) turned out to be 4180 nM.

With `C[C@@H](Nc1ncnc(N)c1C#N)c1nc2ccc(F)cc2n1-c1cccc(C#N)c1` [4-amino-6-(((1R)-1-(1-(3-cyanophenyl)-6-fluoro-1H-benzimidazol-2-yl)ethyl)amino)-5-pyrimidinecarbonitrile], the inhibition constant (Ki) was determined as 411 nM.
